Results taken from ChEMBL document CHEMBL5523719, “Structure-activity relationship study of new carbazole sulfonamide derivatives as anticancer agents with dual-target mechanism” (Eur J Med Chem, 2024).
Activity calls are given as the source filed them. The calls are words filed in the database; no cut-off is given here.

Columns and labels:
L02 = assay: Antiproliferation activity against human L02 cells measured after 72 hrs incubation by MTT assay; format: functional, cell-based; conditions: L02, 72 h
KB = assay: Antiproliferation activity against human KB cells measured after 72 hrs incubation by MTT assay; format: functional, cell-based
MIA PaCa-2 = assay: Antiproliferation activity against human MIA PaCa-2 cells measured after 72 hrs incubation by MTT assay; format: functional, cell-based; conditions: MIA PaCa-2, 72 h
NCI-H460 = assay: Antiproliferation activity against human NCI-H460 cells measured after 72 hrs incubation by MTT assay; format: functional, cell-based; conditions: NCI-H460, 72 h
MDA-MB-231 = assay: Antiproliferation activity against human MDA-MB-231 cells measured after 72 hrs incubation by MTT assay; format: functional, cell-based; conditions: MDA-MB-231, 72 h
MCF7 [1] = assay: Induction of apoptosis in human MCF7 cells assessed as late apoptotic cells at 50 nM measured after 48 hrs by AnnexinV/PI double staining assays (reference value: 2.60%); format: functional
MCF7 [2] = assay: Induction of apoptosis in human MCF7 cells assessed as necrotic cells at 50 nM measured after 48 hrs by AnnexinV/PI double staining assays (reference value: 0.89%); format: functional
HMEC-1 [3] = assay: Anti-migration activity in human HMEC-1 cells assessed as inhibition of cell migration at 5 nM measured after 48 hrs by Scratching assay; format: functional, cell-based
MCF7 [4] = assay: Induction of apoptosis in human MCF7 cells assessed as viable cells at 50 nM measured after 48 hrs by AnnexinV/PI double staining assays (reference value: 91.20%); format: functional; conditions: read-out: Activity
HMEC-1 [5] = assay: Anti-proliferative activity against human HMEC-1 cells measured after 48 hrs; format: functional, cell-based; conditions: HMEC-1, 48 h
HMEC-1 [6] = assay: Angiogenic activity against human HMEC-1 cells assessed as decrease in vascular area measured after 48 hrs by Endothelial tube formation assay; format: functional, cell-based; conditions: dose 1-100 nM
MCF7 [7] = assay: Induction of apoptosis in human MCF7 cells assessed as multinuclear cells at 50 nM measured after 24 hrs by fluorescent microscopy; format: functional, cell-based
MCF7 [8] = assay: Antiproliferation activity against human MCF7 cells measured after 72 hrs incubation by MTT assay; format: functional, cell-based; conditions: MCF7, 72 h
[9] = Solubility of the compound; format: physicochemical
NCI/ADR-RES = assay: Antiproliferation activity against human MCF7/ADR cells measured after 72 hrs incubation by MTT assay; format: functional, cell-based
MCF7 [10] = assay: Induction of apoptosis in human MCF7 cells assessed as early apoptotic cells at 50 nM measured after 48 hrs by AnnexinV/PI double staining assays (reference value: 5.32%); format: functional
Bel-7402 = assay: Antiproliferation activity against human Bel-7402 cells measured after 72 hrs incubation by MTT assay; format: functional, cell-based; conditions: Bel-7402, 72 h
[11] = Clearance in Sprague-Dawley rat at 10 mg/kg, iv; format: ADME, organism-based; conditions: in vivo
[12] = Toxicity in mouse xenografted with human HepG2 cells assessed as body weight change at 10 to 20 mg/kg, iv every other day for 22 days; format: organism-based; conditions: in vivo, 528 h, dose 10-20 mg/kg, time 22 day
HepG2 [13] = assay: In vivo antitumor activity against human HepG2 cells xenografted in mouse assessed as inhibition of tumor growth treated at 20 mg/kg, iv every other day for 22 days relative to control; format: functional; conditions: HepG2, 528 h, time 22 day, read-out: TGI
[14] = AUC (0 to last) in Sprague-Dawley rat at 10 mg/kg, iv; format: ADME, organism-based; conditions: in vivo
[15] = Half life in Sprague-Dawley rat at 10 mg/kg, iv; format: ADME, organism-based; conditions: in vivo
[16] = MRT (0 to last) in Sprague-Dawley rat at 10 mg/kg, iv; format: ADME, organism-based; conditions: in vivo
[17] = Initial plasma concentration in Sprague-Dawley rat at 10 mg/kg, iv; format: ADME, organism-based
HepG2 [18] = assay: In vivo antitumor activity against human HepG2 cells xenografted in mouse assessed as inhibition of tumor growth treated iv every other day for 22 days; format: functional, organism-based; conditions: time 22.0 day
MCF7 [19] = assay: Induction of cell cycle arrest in human MCF7 cells assessed as accumulation of cells at G2/M phase at 500 nM measured after 24 hrs by flow cytometry (reference value: 22.84%); format: functional
MCF7 [20] = assay: Induction of cell cycle arrest in human MCF7 cells assessed as accumulation of cells at G0/G1 phase at 500 nM measured after 24 hrs by flow cytometry (reference value: 61.73%); format: functional

COc1cc(NS(=O)(=O)c2ccc3c(c2)c2ccc(N)cc2n3C)cc(OC)c1OC
IC50 (L02): 21 nM | IC50 (KB): 34.5 nM | IC50 (MIA PaCa-2): 24.4 nM | IC50 (NCI-H460): 13.1 nM | IC50 (MDA-MB-231): 16.1 nM

COc1cc(OC)c(NS(=O)(=O)c2ccc3c(c2)c2ccc(N)cc2n3C)c(OC)c1
IC50 (L02): 30.9 nM | IC50 (KB): 18.1 nM | IC50 (MIA PaCa-2): 31 nM | IC50 (NCI-H460): 14 nM | IC50 (MDA-MB-231): 39.9 nM

COc1ccc(OC)c(NS(=O)(=O)c2ccc3c(c2)c2ccc(N)cc2n3C)c1
IC50 (L02): 11.6 nM | IC50 (KB): 18.3 nM | IC50 (MIA PaCa-2): 19.9 nM | IC50 (NCI-H460): 25.5 nM | IC50 (MDA-MB-231): 18.9 nM

CN1CCN(Cc2ccc(NS(=O)(=O)c3ccc4c(c3)c3ccc(O)cc3n4C)cc2C(F)(F)F)CC1
IC50 (L02): > 400 nM | IC50 (KB): > 400 nM | IC50 (MIA PaCa-2): > 400 nM | IC50 (NCI-H460): > 400 nM

COc1ccc(NS(=O)(=O)c2ccc3c(c2)c2ccc(O)cc2n3C)c(OC)n1
Activity (MCF7 [1]): 5.65% | Activity (MCF7 [2]): 0.04% | inhibition (HMEC-1 [3]): Active | IC50 (L02): 51.6 nM | viability at 0.05 µM (MCF7 [4]): 45.6% | IC50 (HMEC-1 [5]): 6.42 nM | Activity (HMEC-1 [6]): Dose-Dependent Effect | Activity (MCF7 [7]): Active | IC50 (KB): 104 nM | IC50 (MCF7 [8]): 41.5 nM | solubility [9]: < 100 µg/mL | IC50 (MIA PaCa-2): 51.8 nM | IC50 (NCI-H460): 43.8 nM | IC50 (NCI/ADR-RES): 88.2 nM | IC50 (MDA-MB-231): 98.4 nM | Activity (MCF7 [10]): 39.03%

COc1ccc(NS(=O)(=O)c2ccc3c(c2)c2ccc(NC(=O)CN4CCN(C)CC4)cc2n3C)c(OC)n1.Cl
solubility [9]: 27000 µg/mL | IC50 (Bel-7402): 18700 nM

COc1ccc(NS(=O)(=O)c2ccc3c(c2)c2ccc(NC(=O)CN)cc2n3C)c(OC)n1.Cl
solubility [9]: 500 µg/mL | IC50 (Bel-7402): 1200 nM

COc1ccc(NS(=O)(=O)c2ccc3c(c2)c2ccc(NC(=O)CCCN4CCOCC4)cc2n3C)c(OC)n1.Cl
solubility [9]: 6800 µg/mL | IC50 (Bel-7402): 8470 nM

COc1cc(OC)c(NS(=O)(=O)c2ccc3c(c2)c2ccc(N)cc2n3C)cc1Cl
IC50 (L02): 18 nM | IC50 (KB): 46 nM | IC50 (MIA PaCa-2): 13.3 nM | IC50 (NCI-H460): 47.5 nM | IC50 (MDA-MB-231): 29 nM

COc1ccc(NS(=O)(=O)c2ccc3c(c2)c2ccc(NC(=O)CN(C)C)cc2n3C)c(OC)n1.Cl
solubility [9]: 25000 µg/mL | IC50 (Bel-7402): 1400 nM

COc1ccc(NS(=O)(=O)c2ccc3c(c2)c2ccc(N)cc2n3C)cc1
IC50 (L02): > 400 nM | IC50 (KB): > 400 nM | IC50 (MIA PaCa-2): > 400 nM | IC50 (NCI-H460): > 400 nM | IC50 (MDA-MB-231): > 400 nM

COc1cc(OC)c(NS(=O)(=O)c2ccc3c(c2)c2ccc(O)cc2n3C)cc1Cl
IC50 (L02): 33 nM | IC50 (KB): 70 nM | IC50 (MIA PaCa-2): 55.5 nM | IC50 (NCI-H460): 14.5 nM | IC50 (MDA-MB-231): 41.6 nM

COc1ccc(NS(=O)(=O)c2ccc3c(c2)c2ccc(N)cc2n3C)c(OC)c1
IC50 (L02): 42.2 nM | IC50 (MIA PaCa-2): 57.2 nM | IC50 (MDA-MB-231): 155 nM

COc1ccc(NS(=O)(=O)c2ccc3c(c2)c2ccc(N)cc2n3C)c(OC)n1
IC50 (L02): 109 nM | IC50 (KB): 40.4 nM | solubility [9]: < 100 µg/mL | IC50 (MIA PaCa-2): 58.3 nM | IC50 (NCI-H460): 33 nM | IC50 (Bel-7402): 520 nM | IC50 (MDA-MB-231): 35.4 nM

COc1ccc(NS(=O)(=O)c2ccc3c(c2)c2ccc(NC(=O)[C@@H](N)Cc4ccc(O)cc4)cc2n3C)c(OC)n1.Cl
solubility [9]: 2000 µg/mL | IC50 (Bel-7402): 1880 nM

COc1ccc(NS(=O)(=O)c2ccc3c(c2)c2ccc(NC(=O)[C@@H](N)C(C)C)cc2n3C)c(OC)n1.Cl
clearance [11]: 72.9 mL/min/kg | Activity [12]: Non-Toxic | inhibition in vivo at 20 mg/kg (HepG2 [13]): 71% | AUC(0-t) [14]: 2290 ng·h/mL | half-life [15]: 34.4 min | MRT last [16]: 7.26 min | C0 [17]: 22000 ng/mL | solubility [9]: 4000 µg/mL | TGI (HepG2 [18]): Dose-Dependent Effect | IC50 (Bel-7402): 480 nM

Cn1c2ccc(S(=O)(=O)Nc3cccc(-c4ccn[nH]4)c3)cc2c2ccc(N)cc21
IC50 (L02): 94.5 nM | IC50 (KB): 244 nM | IC50 (MIA PaCa-2): 61.2 nM | IC50 (NCI-H460): 325 nM | IC50 (MDA-MB-231): 72.5 nM

COc1ccc(/C=C\c2cc(OC)c(OC)c(OC)c2)cc1O [COMBRETASTATIN A4]
IC50 (HMEC-1 [5]): 6.42 nM | Activity (MCF7 [19]): 3.4% | Activity (MCF7 [20]): 3.41% | IC50 (MCF7 [8]): 32.7 nM | IC50 (NCI/ADR-RES): 12.5 nM

COc1ccc(NS(=O)(=O)c2ccc3c(c2)c2ccc(NC(=O)CCN4CCOCC4)cc2n3C)c(OC)n1.Cl
solubility [9]: 13000 µg/mL | IC50 (Bel-7402): 13700 nM

COc1cc(NS(=O)(=O)c2ccc3c(c2)c2ccc(O)cc2n3C)cc(OC)c1OC
IC50 (L02): 43.1 nM | IC50 (KB): 32 nM | IC50 (MIA PaCa-2): 14.6 nM | IC50 (NCI-H460): 34.6 nM | IC50 (MDA-MB-231): 39.2 nM

CC(=O)O[C@H]1C(=O)[C@@]2(C)[C@H]([C@H](OC(=O)c3ccccc3)[C@]3(O)C[C@H](OC(=O)[C@H](O)[C@@H](NC(=O)c4ccccc4)c4ccccc4)C(C)=C1C3(C)C)[C@]1(OC(C)=O)CO[C@@H]1C[C@@H]2O [PACLITAXEL]
IC50 (MCF7 [8]): 28.7 nM | IC50 (NCI/ADR-RES): 464 nM

COc1ccc(NS(=O)(=O)c2ccc3c(c2)c2ccc(O)cc2n3C)c(OC)c1
IC50 (L02): 54.4 nM | IC50 (KB): 78.8 nM | IC50 (MIA PaCa-2): 52.8 nM | IC50 (NCI-H460): 40.5 nM | IC50 (MDA-MB-231): 82.8 nM

COc1ccc(NS(=O)(=O)c2ccc3c(c2)c2ccc(NC(=O)CN4CCCCC4)cc2n3C)c(OC)n1.Cl
solubility [9]: 4700 µg/mL | IC50 (Bel-7402): 8210 nM

COc1cc([C@@H]2c3cc4c(cc3[C@H](O)[C@H]3COC(=O)[C@H]23)OCO4)cc(OC)c1OC [PODOFILOX]
IC50 (L02): 32.8 nM | IC50 (KB): 3.21 nM | IC50 (MIA PaCa-2): 19.7 nM | IC50 (NCI-H460): 24.6 nM | IC50 (Bel-7402): 40 nM | IC50 (MDA-MB-231): 80.5 nM

COc1ccc(OC)c(NS(=O)(=O)c2ccc3c(c2)c2ccc(O)cc2n3C)c1
IC50 (L02): 45.6 nM | IC50 (KB): 17.5 nM | IC50 (MIA PaCa-2): 0.85 nM | IC50 (NCI-H460): 12.5 nM | IC50 (MDA-MB-231): 0.93 nM

COc1cc(NS(=O)(=O)c2ccc3c(c2)c2ccc(N)cc2n3C)c(OC)cc1N
IC50 (L02): 30.9 nM | IC50 (KB): 80.2 nM | IC50 (MIA PaCa-2): 33.2 nM | IC50 (NCI-H460): 76.3 nM | IC50 (MDA-MB-231): 85.7 nM

COc1ccc(NS(=O)(=O)c2ccc3c(c2)c2ccc(NC(=O)[C@@H](N)CO)cc2n3C)c(OC)n1.Cl
Activity [12]: Non-Toxic | solubility [9]: 2000 µg/mL | TGI (HepG2 [18]): Dose-Dependent Effect | IC50 (Bel-7402): 1450 nM

COc1ccc(NS(=O)(=O)c2ccc3c(c2)c2ccc(NC(=O)CCN(C)C)cc2n3C)c(OC)n1.Cl
solubility [9]: 11000 µg/mL | IC50 (Bel-7402): 5020 nM
